Consider 32 compounds from patent US20230104936A1, “TRPML MODULATORS” (Casma Therapeutics, Inc., priority 2019, published 2023).

Bounds are passed on as bounds.

In one experiment the test system is TFEB. The experiment can be described thus: TFEB nuclear translocation assay, HeLa wt cells. As to conditions: 2 hrs compound treatment, Table 1 does not say HeLa wt or TRPML1 KO. The experiment is classed as cell-based. Put shortly:
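HeLa wt, 2 hr compound, 37° C; 4% PFA fix; anti-TFEB (rabbit, 1:200, overnight 4° C) + Alexa 488 secondary, Hoechst. Imaged ×20, 4 fields/well. Readout: nuclear/ring Alexa 488 intensity ratio; AC50.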
`C[C@@H]1CN(CC2CCN(c3c(F)cccc3[C@H](C)S(=O)(=O)c3ccc(S(=N)(=O)N(C)C)cc3)CC2)C[C@H](C)O1` (single isomer, unassigned) [Compound A-1001] came in with an AC50 of at most 2000 nM.

Still in this experiment, the particulars now being: Homo sapiens, HeLa, 2 h, 2 hrs compound treatment, Table 1 does not say HeLa wt or TRPML1 KO.
Regarding `O=S(=O)(Cc1ccc(F)c(Cl)c1)Nc1cccc(Cl)c1N1CCOCC1` [Compound A-368, N-[3-chloro-2-(morpholin-4-yl)phenyl]-1-(3-chloro-4-fluorophenyl)methanesulfonamide], the concentration at half-maximal activity (AC50) fell in the range of 2010 to 8000 nM.

Compound `Cc1nc(C)c(S(=O)(=O)Nc2ccccc2N2CCC(CN3C[C@@H](C)O[C@@H](C)C3)CC2)s1` [Compound A-756, N-[2-(4-{[(2R,6S)-2,6-dimethylmorpholin-4-yl]methyl}piperidin-1-yl)phenyl]-2,4-dimethyl-1,3-thiazole-5-sulfonamide] came in with an AC50 of 2010 to 8000 nM.

Turning to `CN(C)S(=O)(=O)c1ccc(S(=O)(=O)Nc2cccc(Cl)c2N2CCOCC2)cc1` [Compound A-311, N4-[3-chloro-2-(morpholin-4-yl)phenyl]-N1,N1-dimethylbenzene-1,4-disulfonamide], the half-maximal activity concentration (AC50) was in the range of 2010 to 8000 nM.

Consider `CN(C)S(=O)(=O)c1ccc(S(=O)(=O)Nc2ccccc2N2CCC(C)(c3ccc(Cl)cc3)CC2)cc1` [Compound A-184, N4-{2-[4-(4-chlorophenyl)-4-methylpiperidin-1-yl]phenyl}-N1,N1-dimethylbenzene-1,4-disulfonamide], for which the half-maximal activity concentration (AC50) was at most 2000 nM.

Regarding `CN(C)S(=O)(=O)c1ccc(S(=O)(=O)Nc2ccccc2N2C3CC2CN(c2ccc(Cl)cc2F)C3)cc1` [Compound A-27, N4-{2-[3-(4-chloro-2-fluorophenyl)-3,6-diazabicyclo[3.1.1]heptan-6-yl]phenyl}-N1,N1-dimethylbenzene-1,4-disulfonamide], the AC50 lay within 2010 to 8000 nM.

In the case of `CC(c1cccnc1N1CCC2(CC1)COC(C)(C)C2)S(=O)(=O)c1ccc(S(=O)(=O)N(C)C)cc1` (centres unmarked) [Compound A-775, 4-[1-(2-{3,3-dimethyl-2-oxa-8-azaspiro[4.5]decan-8-yl}pyridin-3-yl)ethanesulfonyl]-N,N-dimethylbenzene-1-sulfonamide], the AC50 lay in the range of 8010 to 9990 nM.

`O=S(=O)(Nc1ccccc1N1CCC(c2ccc(Cl)cc2F)CC1)c1ccccc1Cl` [Compound A-76, 2-chloro-N-{2-[4-(4-chloro-2-fluorophenyl)piperidin-1-yl]phenyl}benzene-1-sulfonamide] yielded an AC50 of at least 10000 nM.

For the compound `C#Cc1cccc(NS(=O)(=O)c2ccc(S(=O)(=O)N(C)C)cc2)c1N1CCCCC1` [Compound A-901, N4-[3-ethynyl-2-(piperidin-1-yl)phenyl]-N1,N1-dimethylbenzene-1,4-disulfonamide], the half-maximal activity concentration (AC50) was at most 2000 nM.

The compound `Cc1ccc(CS(=O)(=O)Nc2ccccc2N2CCC3(CC2)COC(C)(C)C3)cc1` [Compound A-711, N-(2-{3,3-dimethyl-2-oxa-8-azaspiro[4.5]decan-8-yl}phenyl)-1-(4-methylphenyl)methanesulfonamide] yielded a concentration at half-maximal activity (AC50) of at most 2000 nM.

`CS(=O)(=O)c1ccc(S(=O)(=O)Nc2ccccc2N2CCC(c3ccc(Cl)cc3F)CC2)cc1` [Compound A-98, N-{2-[4-(4-chloro-2-fluorophenyl)piperidin-1-yl]phenyl}-4-methanesulfonylbenzene-1-sulfonamide] returned an AC50 of at most 2000 nM.

The compound `CC(Sc1ccc(S(=O)(=O)C(F)F)cc1)c1cccc(F)c1N1CCCCC1` (centres unmarked) [Compound A-971, 1-(2-{1-[(4-difluoromethanesulfonylphenyl)sulfanyl]ethyl}-6-fluorophenyl)piperidine] yielded a concentration at half-maximal activity (AC50) of 2010 to 8000 nM.

`CN(C)S(=O)(=O)c1ccc(S(=O)(=O)Nc2ccccc2N2CCC(C(C)(C)C)CC2)cc1` [Compound A-353, N4-[2-(4-tert-butylpiperidin-1-yl)phenyl]-N1,N1-dimethylbenzene-1,4-disulfonamide] came in with a half-maximal activity concentration (AC50) of at most 2000 nM.

`CC(C)(C)C(=O)N1CCN(c2ccccc2NS(=O)(=O)c2ccc(OC3CCCC3)cc2)CC1` [Compound A-536, 4-(cyclopentyloxy)-N-{2-[4-(2,2-dimethylpropanoyl)piperazin-1-yl]phenyl}benzene-1-sulfonamide] returned a half-maximal activity concentration (AC50) of 8010 to 9990 nM.

`CN(C)S(=O)(=O)c1ccc(S(=O)(=O)Cc2ccccc2N2CCN(C(=O)OCc3ccccc3)CC2)cc1` [Compound A-598, benzyl 4-(2-{[4-(dimethylsulfamoyl)benzenesulfonyl]methyl}phenyl)piperazine-1-carboxylate] registered an AC50 of at most 2000 nM.

For `CN(C)S(=N)(=O)c1ccc(S(=O)(=O)Nc2cccc(F)c2N2CCC(CN3CCOCC3(C)C)CC2)cc1` (centres unmarked) [Compound A-867, 4-[(2-{4-[(3,3-dimethylmorpholin-4-yl)methyl]piperidin-1-yl}-3-fluorophenyl)sulfamoyl]-N,N-dimethylbenzene-1-sulfonoimidamide], the half-maximal activity concentration (AC50) was at most 2000 nM.

Compound `CN(C)S(=O)(=O)c1ccc(S(=O)(=O)Nc2ccccc2N2CCN(C(=O)C(C)(F)F)CC2)cc1` [Compound A-446, N4-{2-[4-(2,2-difluoropropanoyl)piperazin-1-yl]phenyl}-N1,N1-dimethylbenzene-1,4-disulfonamide] showed an AC50 of 2010 to 8000 nM.

`COc1ccc(S(=O)(=O)Nc2ccccc2N(C)c2ccc(F)cc2F)cc1` [Compound A-199, N-{2-[(2,4-difluorophenyl)(methyl)amino]phenyl}-4-methoxybenzene-1-sulfonamide] showed an AC50 of at least 10000 nM.

`CCN1CCN(c2ccc(Cl)cc2NS(=O)(=O)c2ccc3c(c2)CCC3)C(=O)C1` [Compound A-314, N-[5-chloro-2-(4-ethyl-2-oxopiperazin-1-yl)phenyl]-2,3-dihydro-1H-indene-5-sulfonamide]: the concentration at half-maximal activity (AC50) was at least 10000 nM.

In turn, `CN1CC2(CCN(c3c(NS(=O)(=O)c4ccc(S(=O)(=O)N(C)C)cc4)ccc4c3cnn4C)CC2)c2ccc(F)cc21` [Compound A-247, N4-(4-{6-fluoro-1-methyl-1,2-dihydrospiro[indole-3,4′-piperidin]-1′-yl}-1-methyl-1H-indazol-5-yl)-N1,N1-dimethylbenzene-1,4-disulfonamide] had an AC50 of at most 2000 nM.

As to `CN(C)S(=O)(=O)c1ccc(S(=O)(=O)Nc2cccc(F)c2N2CCC3(CCC(=O)N3)CC2)cc1` [Compound A-796, N4-(3-fluoro-2-{2-oxo-1,8-diazaspiro[4.5]decan-8-yl}phenyl)-N1,N1-dimethylbenzene-1,4-disulfonamide], the AC50 is at least 10000 nM.

In turn, `CN1CC(c2ccccc2)C2(CCN(c3ccccc3NS(=O)(=O)c3ccc(S(=O)(=O)N(C)C)cc3)CC2)C1` (centres unmarked) [Compound A-302, N1,N1-dimethyl-N4-(2-{2-methyl-4-phenyl-2,8-diazaspiro[4.5]decan-8-yl}phenyl)benzene-1,4-disulfonamide] gave an AC50 of at least 10000 nM.

`CN1CC2(CCN(c3ccccc3NS(=O)(=O)c3ccc(S(=N)(=O)N(C)C)cc3)CC2)c2ccc(F)cc21` (centres unmarked) [Compound A-257, 4-[(2-{6-fluoro-1-methyl-1,2-dihydrospiro[indole-3,4′-piperidin]-1′-yl}phenyl)sulfamoyl]-N,N-dimethylbenzene-1-sulfonoimidamide] registered an AC50 of at most 2000 nM.

For `CN(C(=O)C1CCN(c2ccccc2NS(=O)(=O)c2ccc(S(=O)(=O)N(C)C)cc2)CC1)C(C)(C)C` [Compound A-359, N-tert-butyl-1-{2-[4-(dimethylsulfamoyl)benzenesulfonamido]phenyl}-N-methylpiperidine-4-carboxamide], the concentration at half-maximal activity (AC50) was at most 2000 nM.

In turn, `COCC1(F)CCN(c2ccccc2NS(=O)(=O)c2ccc(S(=O)(=O)N(C)C)cc2)CC1` [Compound A-686, N4-[2-[4-fluoro-4-(methoxymethyl)piperidin-1-yl]phenyl}-N1,N1-dimethylbenzene-1,4-disulfonamide] returned a concentration at half-maximal activity (AC50) of at most 2000 nM.

The compound `CS(=O)(=O)c1ccc(S(=O)(=O)Nc2ccccc2N2CCC3(CCO3)CC2)cc1` [Compound A-333, 4-methanesulfonyl-N-(2-{1-oxa-7-azaspiro[3.5]nonan-7-yl}phenyl)benzene-1-sulfonamide] displayed a half-maximal activity concentration (AC50) of at least 10000 nM.

For `CCC1(N2CCCC2)CCN(c2ccccc2NS(=O)(=O)c2ccc(S(=O)(=O)N(C)C)cc2)CC1` [Compound A-452, N4-{2-[4-ethyl-4-(pyrrolidin-1-yl)piperidin-1-yl]phenyl}-N1,N1-dimethylbenzene-1,4-disulfonamide], the AC50 was in the range of 8010 to 9990 nM.

In the case of `CC(c1cccc(F)c1N1CCCCC1)S(=O)(=O)c1ccc(S(=O)(=O)N(C)C)cc1` (single isomer, unassigned) [Compound A-911, 4-((1-(3-fluoro-2-(piperidin-1-yl)phenyl)ethyl)sulfonyl)-N,N-dimethylbenzenesulfonamide], the concentration at half-maximal activity (AC50) is at most 2000 nM.

`O=S(=O)(Nc1cccc(Cl)c1N1CCC(c2c(F)cccc2F)CC1)c1ccc2c(c1)CCC2` [Compound A-298, N-{3-chloro-2-[4-(2,6-difluorophenyl)piperidin-1-yl]phenyl}-2,3-dihydro-1H-indene-5-sulfonamide] yielded an AC50 of at most 2000 nM.

With `CN(C)S(=O)(=O)c1ccc(C(Nc2cc(Cl)ccc2N2CCOCC2)C(F)(F)F)cc1` (centres unmarked) [Compound A-356, 4-(1-{[5-chloro-2-(morpholin-4-yl)phenyl]amino}-2,2,2-trifluoroethyl)-N,N-dimethylbenzene-1-sulfonamide], the AC50 lay in the range of 2010 to 8000 nM.

With `COCC1(C)CCN(c2ccccc2NS(=O)(=O)Cc2cccc(C)c2)CC1` [Compound A-593, N-{2-[4-(methoxymethyl)-4-methylpiperidin-1-yl]phenyl}-1-(3-methylphenyl)methanesulfonamide], the AC50 lay in the range of 2010 to 8000 nM.

For the compound `CC(c1cccc(F)c1N1CCC(C)(C(F)F)CC1)S(=O)(=O)c1ccc(S(=O)(=O)N(C)C)cc1` (single isomer, unassigned) [Compound A-925, 4-((1-(2-(4-(difluoromethyl)-4-methylpiperidin-1-yl)-3-fluorophenyl)ethyl)sulfonyl)-N,N-dimethylbenzenesulfonamide], the AC50 is at most 2000 nM.
